Assay results as given in patent publication EP0908457B1, “3-(1,2-benzisothiazol- and isoxazol-5-Y1)-2,4(1H,3H)-pyrimidinedione or thione and 3-(1,2-benzisothiazol- and isoxazol-5-y1)-4(3H)-pyrimidinone or thione herbicidal agents” (BASF AKTIENGESELLSCHAFT, priority 1997, dated 1999).

What was measured:
[1] = tested on: Echinochloa oryzoides (Ard.) Fritsch.; experiment: Preemergence weed control under flooded paddy conditions, ECHORC (Watergrass (Calif.)); type: in vivo; details: flooded paddy; for ECHORC / herbicidal effect rating, ECHORC: preemergence weeds; for ECHORC: herbicidal effect rating 0-9, three to four weeks after treatment; for ECHORC herbicidal effect rating: preemergence; for ECHORC herbicidal effect rating / herbicidal effect rating, ECHORC: rated three to four weeks after treatment; as to herbicidal effect rating, ECHORC: meaning of each grade not given here
Cyperus iria = experiment: Preemergence weed control under flooded paddy conditions, CYPIR (Rice Flatsedge); type: in vivo; details: flooded paddy; for CYPIR / herbicidal effect rating, CYPIR: preemergence weeds; for CYPIR: herbicidal effect rating 0-9, three to four weeks after treatment; for CYPIR herbicidal effect rating: preemergence; for CYPIR herbicidal effect rating / herbicidal effect rating, CYPIR: rated three to four weeks after treatment; as to herbicidal effect rating, CYPIR: meaning of each grade not given here
[2] = tested on: Cyperus serotinus, Rottb.; experiment: Preemergence weed control under flooded paddy conditions, CYPSE (Flatsedge); type: in vivo; details: for CYPSE / herbicidal effect rating, CYPSE: preemergence weeds; for CYPSE: herbicidal effect rating 0-9, three to four weeks after treatment; for CYPSE herbicidal effect rating: preemergence; for CYPSE herbicidal effect rating / herbicidal effect rating, CYPSE: rated three to four weeks after treatment; as to herbicidal effect rating, CYPSE: meaning of each grade not given here
[3] = tested on: Monochoria vaginalis, Presl.; experiment: Preemergence weed control under flooded paddy conditions, MOOVA (Monochoria); type: in vivo; details: flooded paddy; for MOOVA / herbicidal effect rating, MOOVA: preemergence weeds; for MOOVA: herbicidal effect rating 0-9, three to four weeks after treatment; for MOOVA herbicidal effect rating: preemergence; for MOOVA herbicidal effect rating / herbicidal effect rating, MOOVA: rated three to four weeks after treatment; as to herbicidal effect rating, MOOVA: meaning of each grade not given here
Sagittaria pygmaea, L. = experiment: Preemergence weed control under flooded paddy conditions, SAGPY (Arrowhead (Pygmaea)); type: in vivo; details: flooded paddy; for SAGPY / herbicidal effect rating, SAGPY: preemergence weeds; for SAGPY: herbicidal effect rating 0-9, three to four weeks after treatment; for SAGPY herbicidal effect rating: preemergence; for SAGPY herbicidal effect rating / herbicidal effect rating, SAGPY: rated three to four weeks after treatment; as to herbicidal effect rating, SAGPY: meaning of each grade not given here
[4] = tested on: Oryza sativa, (L.) Tebonnet; experiment: Rice tolerance to post-transplant applications under flooded paddy conditions (Example 187), ORYSAT (Rice, Tebonnet); details: for ORYSAT: herbicidal effect rating 0-9, three to four weeks after treatment; for ORYSAT herbicidal effect rating / herbicidal effect rating, ORYSAT (rice tolerance): rated three to four weeks after treatment

C#CCOC(=O)COc1cc2c(cc1-c1nsc3ccc(-n4c(=O)cc(C(F)(F)F)n(C)c4=O)cc13)CCC2 [Example 436, Acetic acid, {{6-{5-[3,6-dihydro-3-methyl-2,6-dioxo-4-(trifluoromethyl)-1(2H)-pyrimidinyl]-1,2-benzisothiazol-3-yl}-5-indanyl}oxy}-, 2-propynyl ester]
ECHORC ([1]; 0.0320 kg/ha): 6.0 | ECHORC ([1]; 0.0620 kg/ha): 9.0 | ECHORC ([1]; 0.1250 kg/ha): 9.0 | ECHORC ([1]; 0.2500 kg/ha): 9.0 | CYPIR (Cyperus iria; 0.0320 kg/ha): 0.0 | CYPIR (Cyperus iria; 0.0620 kg/ha): 2.0 | CYPIR (Cyperus iria; 0.1250 kg/ha): 7.0 | CYPIR (Cyperus iria; 0.2500 kg/ha): 7.0 | CYPSE ([2]; 0.0320 kg/ha): 4.0 | CYPSE ([2]; 0.0620 kg/ha): 6.0 | CYPSE ([2]; 0.2500 kg/ha): 6.0 | MOOVA ([3]; 0.0320 kg/ha): 9.0 | MOOVA ([3]; 0.0620 kg/ha): 9.0 | MOOVA ([3]; 0.1250 kg/ha): 9.0 | MOOVA ([3]; 0.2500 kg/ha): 9.0 | SAGPY (Sagittaria pygmaea, L.; 0.0320 kg/ha): 0.0 | SAGPY (Sagittaria pygmaea, L.; 0.0620 kg/ha): 0.0 | SAGPY (Sagittaria pygmaea, L.; 0.1250 kg/ha): 2.0 | SAGPY (Sagittaria pygmaea, L.; 0.2500 kg/ha): 3.0 | ORYSAT ([4]; 0.0320 kg/ha): 3.0 | ORYSAT ([4]; 0.0620 kg/ha): 5.0 | ORYSAT ([4]; 0.1250 kg/ha): 7.0 | ORYSAT ([4]; 0.2500 kg/ha): 6.0

Cc1ccc(OCC(=O)NS(=O)(=O)c2sc(C)nc2C)c(-c2nsc3ccc(-n4c(=O)cc(C(F)(F)F)n(C)c4=O)cc23)c1 [Example 288, Acetamide, 2-{{2-{5-[3,6-dihydro-3-methyl-2,6-dioxo-4-(trifluoromethyl)-1(2H)-pyrimidinyl]-1,2-benzisothiazol-3-yl}-p-tolyl}oxy}-N-[(2,4-dimethylthiazol-5-yl)sulfonyl]-]
ECHORC herbicidal effect rating ([1]; Rate 0.0320 kg/ha): 0.0 | ECHORC herbicidal effect rating ([1]; Rate 0.0620 kg/ha): 0.0 | ECHORC herbicidal effect rating ([1]; Rate 0.1250 kg/ha): 4.0 | ECHORC herbicidal effect rating ([1]; Rate 0.2500 kg/ha): 5.0 | CYPIR herbicidal effect rating (Cyperus iria; Rate 0.0320 kg/ha): 0.0 | CYPIR herbicidal effect rating (Cyperus iria; Rate 0.0620 kg/ha): 0.0 | CYPIR herbicidal effect rating (Cyperus iria; Rate 0.1250 kg/ha): 4.0 | CYPIR herbicidal effect rating (Cyperus iria; Rate 0.2500 kg/ha): 6.0 | CYPSE herbicidal effect rating ([2]; Rate 0.0320 kg/ha): 0.0 | CYPSE herbicidal effect rating ([2]; Rate 0.0620 kg/ha): 0.0 | CYPSE herbicidal effect rating ([2]; Rate 0.1250 kg/ha): 0.0 | CYPSE herbicidal effect rating ([2]; Rate 0.2500 kg/ha): 0.0 | MOOVA herbicidal effect rating ([3]; Rate 0.0320 kg/ha): 0.0 | MOOVA herbicidal effect rating ([3]; Rate 0.0620 kg/ha): 0.0 | MOOVA herbicidal effect rating ([3]; Rate 0.1250 kg/ha): 3.0 | MOOVA herbicidal effect rating ([3]; Rate 0.2500 kg/ha): 6.0 | SAGPY herbicidal effect rating (Sagittaria pygmaea, L.; Rate 0.0320 kg/ha): 0.0 | SAGPY herbicidal effect rating (Sagittaria pygmaea, L.; Rate 0.0620 kg/ha): 0.0 | SAGPY herbicidal effect rating (Sagittaria pygmaea, L.; Rate 0.1250 kg/ha): 0.0 | SAGPY herbicidal effect rating (Sagittaria pygmaea, L.; Rate 0.2500 kg/ha): 0.0 | ORYSAT herbicidal effect rating ([4]; Rate 0.0320 kg/ha): 0.0 | ORYSAT herbicidal effect rating ([4]; Rate 0.0620 kg/ha): 0.0 | ORYSAT herbicidal effect rating ([4]; Rate 0.1250 kg/ha): 1.0 | ORYSAT herbicidal effect rating ([4]; Rate 0.2500 kg/ha): 2.0

CCOCCOCc1nsc2ccc(-n3c(=O)cc(C(F)(F)F)n(C)c3=O)cc12 [Example 200, 3-{3-[(2-Ethoxyethoxy)methyl]-1,2-benzisothiazol-5-yl}-1-methyl-6-(trifluoromethyl)-2,4(1H,3H)-pyrimidinedione]
herbicidal effect rating, ECHORC ([1]; 0.0313 kg/ha): 0.0 | herbicidal effect rating, ECHORC ([1]; 0.0625 kg/ha): 2.0 | herbicidal effect rating, ECHORC ([1]; 0.1250 kg/ha): 6.0 | herbicidal effect rating, ECHORC ([1]; 0.2500 kg/ha): 9.0 | herbicidal effect rating, CYPIR (Cyperus iria; 0.0313 kg/ha): 4.0 | herbicidal effect rating, CYPIR (Cyperus iria; 0.0625 kg/ha): 6.0 | herbicidal effect rating, CYPIR (Cyperus iria; 0.1250 kg/ha): 7.0 | herbicidal effect rating, CYPIR (Cyperus iria; 0.2500 kg/ha): 8.0 | herbicidal effect rating, CYPSE ([2]; 0.0313 kg/ha): 0.0 | herbicidal effect rating, CYPSE ([2]; 0.0625 kg/ha): 0.0 | herbicidal effect rating, CYPSE ([2]; 0.1250 kg/ha): 2.0 | herbicidal effect rating, CYPSE ([2]; 0.2500 kg/ha): 7.0 | herbicidal effect rating, MOOVA ([3]; 0.0313 kg/ha): 9.0 | herbicidal effect rating, MOOVA ([3]; 0.0625 kg/ha): 9.0 | herbicidal effect rating, MOOVA ([3]; 0.1250 kg/ha): 9.0 | herbicidal effect rating, MOOVA ([3]; 0.2500 kg/ha): 9.0 | herbicidal effect rating, SAGPY (Sagittaria pygmaea, L.; 0.0313 kg/ha): 0.0 | herbicidal effect rating, SAGPY (Sagittaria pygmaea, L.; 0.0625 kg/ha): 0.0 | herbicidal effect rating, SAGPY (Sagittaria pygmaea, L.; 0.1250 kg/ha): 0.0 | herbicidal effect rating, SAGPY (Sagittaria pygmaea, L.; 0.2500 kg/ha): 4.0 | herbicidal effect rating, ORYSAT (rice tolerance) ([4]; 0.0313 kg/ha): 7.0 | herbicidal effect rating, ORYSAT (rice tolerance) ([4]; 0.0625 kg/ha): 7.0 | herbicidal effect rating, ORYSAT (rice tolerance) ([4]; 0.1250 kg/ha): 9.0 | herbicidal effect rating, ORYSAT (rice tolerance) ([4]; 0.2500 kg/ha): 9.0
